Article PMC12648285 (JACS Au, 2025)

Experiments:
[1] = molecular target: TRKB (Homo sapiens, UniProt Q16620); assay: TRKB kinase biochemical assay
[2] = test system: p-TRKA and p-AKT in KM12-Luc cells; assay: Western blot of TRKA activation and downstream signalling in KM12-Luc cells; type: cell-based; conditions: 6 h
[3] = molecular target: T1, TRKA (440-796) (Homo sapiens, UniProt P04629); assay: Site mapping using LC-MS/MS, TRKA+7; type: binding
[4] = molecular target: TRKC (Homo sapiens, UniProt Q16288); assay: TRKC kinase biochemical assay
TRKC, sequence (Q16288 32-839): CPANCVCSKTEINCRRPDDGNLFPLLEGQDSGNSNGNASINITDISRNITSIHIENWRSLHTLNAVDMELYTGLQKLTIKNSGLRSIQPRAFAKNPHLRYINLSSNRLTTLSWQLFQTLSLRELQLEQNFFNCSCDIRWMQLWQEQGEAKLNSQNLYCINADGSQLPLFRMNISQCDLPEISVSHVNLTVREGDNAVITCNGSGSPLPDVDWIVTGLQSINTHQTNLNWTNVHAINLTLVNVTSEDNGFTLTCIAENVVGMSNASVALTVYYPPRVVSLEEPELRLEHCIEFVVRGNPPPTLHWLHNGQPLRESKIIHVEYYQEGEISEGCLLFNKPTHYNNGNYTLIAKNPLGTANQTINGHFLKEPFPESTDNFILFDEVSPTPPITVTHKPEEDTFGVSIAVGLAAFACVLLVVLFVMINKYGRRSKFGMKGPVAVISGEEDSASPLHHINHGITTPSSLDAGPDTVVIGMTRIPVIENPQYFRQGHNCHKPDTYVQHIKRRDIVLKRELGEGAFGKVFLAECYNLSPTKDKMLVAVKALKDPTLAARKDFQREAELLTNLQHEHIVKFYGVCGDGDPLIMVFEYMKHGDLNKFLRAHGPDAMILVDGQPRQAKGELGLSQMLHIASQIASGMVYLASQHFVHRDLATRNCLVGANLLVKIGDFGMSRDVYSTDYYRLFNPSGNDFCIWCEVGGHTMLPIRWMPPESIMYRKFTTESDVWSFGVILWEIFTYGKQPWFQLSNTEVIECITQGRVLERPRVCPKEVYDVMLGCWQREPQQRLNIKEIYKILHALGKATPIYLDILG

[5] = molecular target: TRKA (Homo sapiens, UniProt P04629); assay: TRKA kinase biochemical assay
TRKA, sequence (P04629 33-796): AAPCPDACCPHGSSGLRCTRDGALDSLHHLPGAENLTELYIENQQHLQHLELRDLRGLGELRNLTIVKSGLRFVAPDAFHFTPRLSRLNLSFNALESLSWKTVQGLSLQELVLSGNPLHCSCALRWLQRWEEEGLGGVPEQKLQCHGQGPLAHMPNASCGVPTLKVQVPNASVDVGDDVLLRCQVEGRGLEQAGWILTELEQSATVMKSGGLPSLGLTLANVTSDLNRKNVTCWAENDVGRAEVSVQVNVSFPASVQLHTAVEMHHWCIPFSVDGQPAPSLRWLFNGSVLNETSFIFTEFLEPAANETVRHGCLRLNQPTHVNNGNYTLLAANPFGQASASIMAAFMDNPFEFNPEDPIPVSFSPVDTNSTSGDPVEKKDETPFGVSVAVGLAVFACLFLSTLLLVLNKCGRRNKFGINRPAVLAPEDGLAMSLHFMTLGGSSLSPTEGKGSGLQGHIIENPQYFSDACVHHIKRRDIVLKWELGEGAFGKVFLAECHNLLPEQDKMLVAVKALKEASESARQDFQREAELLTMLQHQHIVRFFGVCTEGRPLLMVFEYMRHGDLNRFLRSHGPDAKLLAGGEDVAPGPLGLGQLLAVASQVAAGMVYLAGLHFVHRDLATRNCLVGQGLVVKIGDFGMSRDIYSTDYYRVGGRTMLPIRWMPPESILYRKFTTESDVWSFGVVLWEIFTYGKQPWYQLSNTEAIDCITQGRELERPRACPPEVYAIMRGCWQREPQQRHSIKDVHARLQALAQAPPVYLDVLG

[6] = molecular target: TRKA kinase domain (440-796) (Homo sapiens, UniProt P04629); assay: Intact protein mass spectrometry, covalent labelling of TRKA; type: binding; conditions: intact protein MS, 2 h incubation, 25 °C, compound/protein 10:1
TRKA kinase domain (440-796), sequence (P04629 440-796): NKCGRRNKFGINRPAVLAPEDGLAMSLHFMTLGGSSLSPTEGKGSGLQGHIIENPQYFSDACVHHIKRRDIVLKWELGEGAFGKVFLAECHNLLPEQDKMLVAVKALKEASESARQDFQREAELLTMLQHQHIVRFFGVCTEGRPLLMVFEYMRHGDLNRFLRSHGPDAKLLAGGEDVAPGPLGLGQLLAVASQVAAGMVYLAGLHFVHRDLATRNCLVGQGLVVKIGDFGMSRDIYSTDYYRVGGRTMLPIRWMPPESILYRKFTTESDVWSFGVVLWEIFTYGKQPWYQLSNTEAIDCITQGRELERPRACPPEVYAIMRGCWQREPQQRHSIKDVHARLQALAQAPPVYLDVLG

[7] = molecular target: T1, TRKA (440-796); assay: Time-dependent intact protein mass; type: binding
[8] = test system: A549 cells; assay: Anti-proliferative assay, A549 cells; type: cell-based; conditions: 72 h
[9] = test system: GAC (73-598); assay: Intact protein mass spectrometry, covalent modification of GAC; type: binding
[10] = test system: A549 cells; assay: Determination of intracellular glutamate and glutamine levels; type: cell-based; conditions: 16 h treatment
[11] = test system: A549 cells; assay: Determination of reactive oxygen species; type: cell-based; conditions: 16 h, flow cytometry
[12] = test system: GAC^WT and GAC^K320A; assay: Western blot of acetylation of GAC WT and GAC K320A; type: biochemical; conditions: 45 min
[13] = molecular target: T2, GAC (Macaca mulatta, UniProt F7AIH5); assay: Recombinant GAC enzymatic assay; type: biochemical
T2 sequence (F7AIH5 73-598): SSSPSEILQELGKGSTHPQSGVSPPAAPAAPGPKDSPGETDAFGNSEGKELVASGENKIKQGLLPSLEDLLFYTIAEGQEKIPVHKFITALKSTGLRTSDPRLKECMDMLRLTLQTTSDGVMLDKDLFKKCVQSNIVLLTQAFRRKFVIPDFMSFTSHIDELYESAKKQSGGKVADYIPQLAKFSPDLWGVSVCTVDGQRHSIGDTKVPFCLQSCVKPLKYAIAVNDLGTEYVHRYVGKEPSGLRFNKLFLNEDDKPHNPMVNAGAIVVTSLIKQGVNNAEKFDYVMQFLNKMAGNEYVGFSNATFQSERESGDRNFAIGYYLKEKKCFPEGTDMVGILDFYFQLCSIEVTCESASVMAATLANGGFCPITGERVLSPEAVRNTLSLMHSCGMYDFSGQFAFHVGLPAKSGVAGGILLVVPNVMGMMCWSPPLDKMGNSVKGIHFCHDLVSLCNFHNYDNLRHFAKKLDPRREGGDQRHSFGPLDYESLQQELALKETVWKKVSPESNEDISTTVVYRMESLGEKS

[14] = time-dependent intact protein MS, TRKA

T1 sequence (P04629 440-796): as the sequence (P04629 440-796) above
TRKB, sequence (Q16620 32-822): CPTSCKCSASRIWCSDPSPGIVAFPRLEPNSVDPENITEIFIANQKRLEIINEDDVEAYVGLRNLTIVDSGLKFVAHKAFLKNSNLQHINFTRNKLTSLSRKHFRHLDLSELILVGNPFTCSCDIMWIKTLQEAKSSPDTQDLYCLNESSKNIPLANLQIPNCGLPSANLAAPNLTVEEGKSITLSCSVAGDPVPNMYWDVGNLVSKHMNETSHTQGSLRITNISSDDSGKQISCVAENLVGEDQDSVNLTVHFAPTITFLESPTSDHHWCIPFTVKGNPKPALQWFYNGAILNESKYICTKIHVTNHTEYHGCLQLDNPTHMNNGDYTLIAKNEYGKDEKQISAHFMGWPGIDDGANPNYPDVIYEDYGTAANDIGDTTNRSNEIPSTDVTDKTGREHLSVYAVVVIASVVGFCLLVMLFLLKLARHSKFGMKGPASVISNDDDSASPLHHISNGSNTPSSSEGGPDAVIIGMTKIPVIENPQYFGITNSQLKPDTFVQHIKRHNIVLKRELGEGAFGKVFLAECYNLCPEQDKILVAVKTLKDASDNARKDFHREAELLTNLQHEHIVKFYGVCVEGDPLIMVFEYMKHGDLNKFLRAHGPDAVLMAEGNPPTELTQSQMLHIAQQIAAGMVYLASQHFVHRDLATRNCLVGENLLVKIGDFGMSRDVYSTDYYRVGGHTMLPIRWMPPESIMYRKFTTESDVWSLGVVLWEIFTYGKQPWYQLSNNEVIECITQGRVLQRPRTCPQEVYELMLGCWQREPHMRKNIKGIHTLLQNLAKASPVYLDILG

With C#Cc1cc(-c2cc(Nc3nc(N[C@@H](C)c4ccc(F)cn4)ncc3Cl)n[nH]2)ccc1C=O [Compound 7] the IC50 [1] was 1.04 nM, the “Phosphorylation of TRKA and downstream AKT” value [2] was “efficiently suppress the phosphorylation of TRKA as well as its downstream AKT” and the “Covalent binding site identified in TRKA” value [3] was “Lys544”. The “Modification rate of Lys544” value ([3]; TRKA + compound, 25 °C, 2 h) was 95%, the IC50 [4] was 1.9 nM and the IC50 [5] was 11.5 nM. For the same compound, the “Total binding rate of TRKA modified by compound” value [6] was 99.2%, the Ki [7] was 800 nM and the “k inact (inactivation rate)” value [7, 14] was 0.0578 min^–1. For the same compound, the “k inact/K I” value [7, 14] was 1.20 × 10^3 M^–1·s^–1.
With C#Cc1c(C=O)cccc1CC(=O)Nc1nnc(N[C@@H]2CCN(c3cccnn3)C2)s1 [Compound 14] the “Cellular activity (A549 antiproliferative)” value (shortened to “Cellular activity”) [8] was “limited efficacy”, the “Covalent modification of GAC by intact protein MS” value ([9]; 8 h, 25 °C) was “confirmed covalent modification of GAC” and the “Labeling efficiency of GAC” value ([9]; intact protein MS, 8 h, 25 °C, theoretical maximum 50%) was about 45%.
With CC(=O)Oc1ccc(CC(=O)Nc2nnc(N[C@@H]3CCN(c4cccnn4)C3)s2)cc1C#N [Compound 16] the “Cellular activity” value [8] was “enhanced antiproliferative activities”, the “Glutamine-to-glutamate conversion (intracellular GLU/GLN ratio)” value [10] was “marked reduction” and the “Intracellular reactive oxygen species (ROS) level” value [11] was “significantly increased”. For the same compound, the “Acetylation of wild-type vs Lys320 mutant GAC at low concentrations” value ([12]; ≤2 μM) was “selectively acetylated wild-type GAC, with no detectable modification of the Lys320 mutant”, the “Acetylation of wild-type vs Lys320 mutant GAC at higher concentrations” value ([12]; ≥10 μM) was “emerging acetylation signals in the Lys320 mutant” and the “Total protein products displaying acetylation” value ([9]; MS of GAC-16 after 8 h incubation at 25 °C) was 71.05%.
With C#Cc1cc(CC(=O)Nc2nnc(N[C@@H]3CCN(c4cccnn4)C3)s2)ccc1C=O [Compound 15] the “Cellular activity” value [8] was “limited efficacy”, the “GAC enzymatic inhibition compared to the reversible inhibitor 13” value [13] was “significantly enhanced GAC enzymatic inhibition” and the “Covalent modification of GAC by intact protein MS” value ([9]; 8 h, 25 °C) was “confirmed covalent modification of GAC”.
